Results from publication PMC8571487 (Biochemistry and Biophysics Reports, 2021).

Target: T1, NcFADS (Neurospora crassa, UniProt Q7SCU7)
T1 sequence (Q7SCU7 49-318): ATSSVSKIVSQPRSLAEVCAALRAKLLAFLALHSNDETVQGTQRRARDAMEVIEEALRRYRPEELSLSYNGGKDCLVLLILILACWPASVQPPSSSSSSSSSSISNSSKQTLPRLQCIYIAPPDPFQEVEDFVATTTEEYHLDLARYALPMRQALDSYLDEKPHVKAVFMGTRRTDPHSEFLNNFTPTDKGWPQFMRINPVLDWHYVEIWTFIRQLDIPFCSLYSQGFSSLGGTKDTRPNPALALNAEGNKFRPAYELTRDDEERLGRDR
Assay: isothermal titration calorimetry
Type: binding

SMILES	Kd [µM]
Cc1cc2nc3c(=O)[nH]c(=O)nc-3n(C[C@H](O)[C@H](O)[C@H](O)COP(=O)(O)O)c2cc1C [FMN]	20.8
Nc1ncnc2c1ncn2[C@@H]1O[C@H](COP(=O)(O)OP(=O)(O)OP(=O)(O)O)[C@@H](O)[C@H]1O [MgATP^2−]	16.6
